Results from ChEMBL document CHEMBL3044921, “Synthesis, characterization, and SAR studies of new (1H-indol-3-yl)alkyl-3-(1H-indol-3-yl)propanamide derivatives as possible antimicrobial and antitubercular agents” (2013).
Values after ≈ are worked out from the molar mass of the structure shown.

Columns and labels:
[1] = test system: Talaromyces marneffei; test: Antifungal activity against Talaromyces marneffei assessed as growth inhibition at […] to […] ug/ml after 3 to 4 days by agar well diffusion method; assay type: functional
[2] = test system: Aspergillus fumigatus; test: Antifungal activity against Aspergillus fumigatus NCIM 902 assessed as growth inhibition at […] to […] ug/ml after 3 to 4 days by agar well diffusion method; assay type: functional
[3] = test system: Aspergillus flavus; test: Antifungal activity against Aspergillus flavus NCIM 524 assessed as growth inhibition at […] to […] ug/ml after 3 to 4 days by agar well diffusion method; assay type: functional
[4] = test system: Candida albicans; test: Antifungal activity against Candida albicans assessed as growth inhibition after 3 to 4 days by serial plate dilution method; assay type: functional
[5] = test system: Trichophyton mentagrophytes; test: Antifungal activity against Trichophyton mentagrophytes assessed as growth inhibition after 3 to 4 days by serial plate dilution method; assay type: functional
[6] = test system: Talaromyces marneffei; test: Antifungal activity against Talaromyces marneffei assessed as growth inhibition after 3 to 4 days by serial plate dilution method; assay type: functional
[7] = test system: Aspergillus fumigatus; test: Antifungal activity against Aspergillus fumigatus NCIM 902 assessed as growth inhibition after 3 to 4 days by serial plate dilution method; assay type: functional
[8] = test system: Aspergillus flavus; test: Antifungal activity against Aspergillus flavus NCIM 524 assessed as growth inhibition after 3 to 4 days by serial plate dilution method; assay type: functional
[9] = test system: Streptococcus pyogenes; assay type: functional
Description: Antibacterial activity against Streptococcus pyogenes assessed as growth inhibition at 1.56 to 25 ug/ml after 3 to 4 days by agar well diffusion method

[10] = test system: Klebsiella pneumoniae; assay type: functional
Description: Antibacterial activity against Klebsiella pneumoniae assessed as growth inhibition at 1.56 to 25 ug/ml after 3 to 4 days by agar well diffusion method

[11] = test system: Pseudomonas aeruginosa; assay type: functional, ATCC 27853
Description: Antibacterial activity against Pseudomonas aeruginosa ATCC 27853 assessed as growth inhibition at 1.56 to 25 ug/ml after 3 to 4 days by agar well diffusion method

[12] = test system: Staphylococcus aureus; assay type: functional, ATCC 25923
Description: Antibacterial activity against Staphylococcus aureus ATCC 25923 assessed as growth inhibition at 1.56 to 25 ug/ml after 3 to 4 days by agar well diffusion method

[13] = test system: Streptococcus pyogenes; test: Antibacterial activity against Streptococcus pyogenes assessed as growth inhibition after 16 to 18 hr by serial plate dilution method; assay type: functional
[14] = test system: Mycobacterium tuberculosis; test: Antitubercular activity against Mycobacterium tuberculosis H37Rv ATCC 27294 assessed as growth inhibition at 0.3125 to 5 ug/mL after 7 days by resazurin reduction test; assay type: functional; details: H37Rv ATCC 27294, 168 h
[15] = test system: Mycolicibacterium smegmatis; test: Antitubercular activity against Mycobacterium smegmatis ATCC 19420 assessed as growth inhibition at 1 to 100 ug/mL after 7 days by resazurin reduction test; assay type: functional; details: ATCC 19420, 168 h
[16] = test system: Mycolicibacterium fortuitum; test: Antitubercular activity against Mycobacterium fortuitum ATCC 19542 assessed as growth inhibition at 1 to 100 ug/mL after 7 days by resazurin reduction test; assay type: functional; details: ATCC 19542, 168 h
[17] = test system: Mycobacterium tuberculosis; test: Antitubercular activity against Mycobacterium tuberculosis H37Rv ATCC 27294 assessed as growth inhibition at 1 to 100 ug/mL after 7 days by resazurin reduction test; assay type: functional; details: for MIC: Mycobacterium tuberculosis, H37Rv ATCC 27294, 168 h
[18] = test system: Candida albicans; test: Antifungal activity against Candida albicans assessed as growth inhibition at […] to […] ug/ml after 3 to 4 days by agar well diffusion method; assay type: functional
[19] = test system: Trichophyton mentagrophytes; test: Antifungal activity against Trichophyton mentagrophytes assessed as growth inhibition at […] to […] ug/ml after 3 to 4 days by agar well diffusion method; assay type: functional
[20] = test system: Klebsiella pneumoniae; test: Antibacterial activity against Klebsiella pneumoniae assessed as growth inhibition after 16 to 18 hr by serial plate dilution method; assay type: functional
[21] = test system: Pseudomonas aeruginosa; test: Antibacterial activity against Pseudomonas aeruginosa ATCC 27853 assessed as growth inhibition after 16 to 18 hr by serial plate dilution method; assay type: functional
[22] = test system: Escherichia coli; test: Antibacterial activity against Escherichia coli […] assessed as growth inhibition after 16 to 18 hr by serial plate dilution method; assay type: functional
[23] = test system: Staphylococcus aureus; test: Antibacterial activity against Staphylococcus aureus ATCC 25923 assessed as growth inhibition after 16 to 18 hr by serial plate dilution method; assay type: functional
[24] = test system: Escherichia coli; assay type: functional, ATCC 24922
Description: Antibacterial activity against Escherichia coli ATCC 24922 assessed as growth inhibition at 1.56 to 25 ug/ml after 3 to 4 days by agar well diffusion method

[25] = test system: Mycolicibacterium fortuitum; test: Antitubercular activity against Mycobacterium fortuitum ATCC 19542 assessed as growth inhibition at 0.3125 to 5 ug/mL after 7 days by resazurin reduction test; assay type: functional; details: ATCC 19542, 168 h

SMILES | diameter of the inhibition zone (DIZ) [1] | diameter of the inhibition zone (DIZ) [2] | diameter of the inhibition zone (DIZ) [3] | MIC [4] | MIC [5] | MIC [6] | MIC [7] | MIC [8] | diameter of the inhibition zone (DIZ) [9] | diameter of the inhibition zone (DIZ) [10] | diameter of the inhibition zone (DIZ) [11] | diameter of the inhibition zone (DIZ) [12] | MIC [13] | MIC [15] | MIC [16] | growth inhibition (GI) [17] | MIC [17] | diameter of the inhibition zone (DIZ) [18] | diameter of the inhibition zone (DIZ) [19] | MIC [20] | other results
Cc1c(CCCNC(=O)CCc2cn(C)c3ccc(Cl)cc23)c2cc(OC(F)(F)F)ccc2n1C | 16 mm | 11 mm | 16 mm | 25 µg/mL (≈ 49.4 µM) | 12.5 µg/mL (≈ 24.7 µM) | 6.25 µg/mL (≈ 12.4 µM) | 12.5 µg/mL (≈ 24.7 µM) | 6.25 µg/mL (≈ 12.4 µM) | <10 mm | 11 mm | <10 mm | 11 mm | 25 µg/mL (≈ 49.4 µM) | > 100 µg/mL | > 100 µg/mL | <90% | 10 µg/mL (≈ 19.8 µM) | <10 mm | 11 mm | 12.5 µg/mL (≈ 24.7 µM) | MIC [14]: 1.25 µg/mL (≈ 2.47 µM); MIC [21]: 25 µg/mL (≈ 49.4 µM); MIC [22]: 12.5 µg/mL (≈ 24.7 µM); MIC [23]: 12.5 µg/mL (≈ 24.7 µM); diameter of the inhibition zone (DIZ) [24]: 11 mm
Cc1c(CCCNC(=O)CCc2c[nH]c3ccc(Cl)cc23)c2cc(OC(F)(F)F)ccc2n1C | 16 mm | <10 mm | 16 mm | 12.5 µg/mL (≈ 25.4 µM) | 25 µg/mL (≈ 50.8 µM) | 6.25 µg/mL (≈ 12.7 µM) | 25 µg/mL (≈ 50.8 µM) | 6.25 µg/mL (≈ 12.7 µM) | 16 mm | 11 mm | <10 mm | 11 mm | 6.25 µg/mL (≈ 12.7 µM) | > 100 µg/mL | 10 µg/mL (≈ 20.3 µM) | 90% | 10 µg/mL (≈ 20.3 µM) | 11 mm | <10 mm | 12.5 µg/mL (≈ 25.4 µM) | MIC [25]: 10 µg/mL (≈ 20.3 µM); MIC [14]: 10 µg/mL (≈ 20.3 µM); MIC [21]: 25 µg/mL (≈ 50.8 µM); MIC [22]: 12.5 µg/mL (≈ 25.4 µM); MIC [23]: 12.5 µg/mL (≈ 25.4 µM); diameter of the inhibition zone (DIZ) [24]: 11 mm
O=C(CCc1c[nH]c2ccc(Cl)cc12)NCCCc1c[nH]c2ccc(Cl)cc12 | 16 mm | 16 mm | 16 mm | 6.25 µg/mL (≈ 15.1 µM) | 6.25 µg/mL (≈ 15.1 µM) | 6.25 µg/mL (≈ 15.1 µM) | 6.25 µg/mL (≈ 15.1 µM) | 6.25 µg/mL (≈ 15.1 µM) | 16 mm | <10 mm | <10 mm | <10 mm | 6.25 µg/mL (≈ 15.1 µM) | > 100 µg/mL | > 100 µg/mL | 0% | > 100 µg/mL | 16 mm | 16 mm | 25 µg/mL (≈ 60.3 µM) | MIC [21]: 25 µg/mL (≈ 60.3 µM); MIC [22]: 25 µg/mL (≈ 60.3 µM); MIC [23]: 25 µg/mL (≈ 60.3 µM); diameter of the inhibition zone (DIZ) [24]: <10 mm
